The values below come from US5563164A, “Phospholipase A2 inhibitors” (Eli Lilly and Company, priority 1995, dated 1996).

In the first data set the test system is neuronal cells.
Assay: not given
The conditions noted are these: Neurobiology of Aging 1992; cited from earlier work.
Turning to “β-amyloid peptide: 4500 Dalton protein, major constituent of amyloid plaque cores; in its longest forms 42 or 43 amino acid residues”, the “direct toxicity (other research groups)” value was “unable to consistently demonstrate direct toxicity”.

The same data set, now with this note: in vitro and in vivo; B. A. Yankner 1989; cited from earlier work.
With “β-amyloid peptide: 4500 Dalton protein, major constituent of amyloid plaque cores; in its longest forms 42 or 43 amino acid residues”, the neurotoxicity result was “neurotoxic in vitro and in vivo”.

The target of the next data set is T1, Human Cytosolic PLA2 (Homo sapiens, UniProt P47712).
T1 sequence (P47712 1-749): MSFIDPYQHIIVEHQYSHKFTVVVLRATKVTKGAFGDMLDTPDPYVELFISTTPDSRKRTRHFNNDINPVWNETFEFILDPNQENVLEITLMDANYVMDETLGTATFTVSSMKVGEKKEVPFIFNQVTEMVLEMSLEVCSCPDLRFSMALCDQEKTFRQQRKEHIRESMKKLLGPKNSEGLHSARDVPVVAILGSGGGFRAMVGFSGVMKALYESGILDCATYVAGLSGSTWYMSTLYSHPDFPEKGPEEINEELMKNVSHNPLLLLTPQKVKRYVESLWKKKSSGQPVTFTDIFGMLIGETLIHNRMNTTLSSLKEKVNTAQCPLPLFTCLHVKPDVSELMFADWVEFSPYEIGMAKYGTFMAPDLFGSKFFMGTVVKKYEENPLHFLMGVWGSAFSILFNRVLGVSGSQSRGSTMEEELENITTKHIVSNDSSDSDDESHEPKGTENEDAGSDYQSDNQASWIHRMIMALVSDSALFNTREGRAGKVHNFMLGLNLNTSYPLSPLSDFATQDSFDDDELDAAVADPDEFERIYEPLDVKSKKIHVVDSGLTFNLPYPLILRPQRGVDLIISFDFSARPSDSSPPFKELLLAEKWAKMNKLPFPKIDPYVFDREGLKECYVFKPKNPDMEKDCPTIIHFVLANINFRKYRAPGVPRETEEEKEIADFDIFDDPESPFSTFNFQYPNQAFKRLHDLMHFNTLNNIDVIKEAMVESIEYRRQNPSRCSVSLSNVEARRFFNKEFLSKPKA
The data set is described as follows: Inhibition of Cytosolic Phospholipase A2 (in vitro, [14C]PC/DG sonicated liposomes). Conditions: 37° C., 15 minutes, pH 7.5, 1 mM calcium chloride. It is filed as biochemical. The method, then: The biological activity of the compounds of Formula I was evaluated employing an in vitro assay measuring the ability of these compounds to inhibit the activity of cytosolic phospholipase A2. The assay was performed essentially as described in R. Kramer, et al., Journal of Biological Chemistry, 266:5268-5272 (1991) with the exception that varying amounts of the compound of Formula I were added to the reaction mixture.
The substrate, sonicated liposomes containing 1-palmitoyl-2[^14 C ]arachidonoyl-sn-glycero-3-phosphocholine ([^14 C]PC, 55 mCi/mmole from NEN Research Products) and sn-1,2-dioleoylglycerol (DG, Avanti Polar Lipids, Birmingham, Ala.) at a molar ratio of 2:1, was prepared as follows. [^14 C]PC (20 nmol, 1×10^6 dpm, 50 μg/ml in toluene/ethanol) and DG (10 nmol, 100 μg/ml in chloroform) were dried under nitrogen. The lipids were dispersed in 1 ml of 150 mM sodium chloride, 50 mM HEPES, pH 7.5 (assay buffer) by sonication at 4° C. with a Microson™ probe-sonicator (Heat Systems Ultrasonics) for 4×15 seconds, with 45 second intervals. Bovine serum albumin (essentially fatty acid free, from a 100 mg/ml stock in water, Sigma) was added to a final concentration of 4 mg/ml. Samples to be assayed for cPLA2 activity were incubated with 50 μl liposomes (0.5 nmol [^14 C]PC, 50,000 dpm containing 0.25 nmol of DG) and varying amounts of the compound of Formula I, in a total volume of 0.2 ml of assay buffer containing 1 mM calcium chloride and 1 mM 2-mercaptoethanol. Incubations were carried out at 37° C. for 15 minutes and terminated by adding 2 ml of Dole's reagent (2-propanol/heptane/0.5 M sulfuric acid, 40:10:1 containing 10 μg/ml of stearic acid).
After mixing, 1.2 ml of heptane and 1 ml of water were added. The mixtures were briefly vortexed and the upper phase transferred to tubes containing 2 ml of heptane and 150 mg of Bio-Sil (Bio-Rad Laboratories) activated at 130° C. before use. The tubes were thoroughly vortexed and centrifuged (1000×g for 5 minutes). The supernatants were decanted into scintillation vials. After addition of 10 ml of a liquid scintillation cocktail (Ready Protein®, Beckman) radioactivity was counted using a Beckman liquid scintillation counter Model LS 7000. High radioactive counts correlate with enzymatic activity.
The first column provides the example number of the test inhibitor. The second column provides the concentration of the test compound (in micromolar quantities) which inhibits fifty percent of the activity of cytosolic phospholipase A2.
Take `CCc1cc(-c2ccc(F)cc2)c(O)cc1OCCCOc1ccccc1CCC(=O)NS(C)(=O)=O` [Example 2, N-Methanesulfonyl-3-(2-(3-(2-ethyl-4-(4-fluorophenyl)-5-hydroxyphenoxy)propoxy)phenyl)propionamide]: the IC50 was 18 µM.
`CCc1cc(-c2ccc(F)cc2)c(O)cc1OCCCOc1ccccc1CCC(=O)NS(=O)(=O)c1ccccc1` [Example 3, N-Phenylsulfonyl-3-(2-(3-(2-ethyl-4-(4-fluorophenyl)-5-hydroxyphenoxy)propoxy)phenyl)propionamide]: the IC50 came to 17 µM.
On to `CCc1cc(-c2ccccc2)c(O)cc1OCCCCCC(C)(C)c1nn[nH]n1` [Example 4, 2-phenyl-4-ethyl-5-[[6-(2H-tetrazol-5-yl)-6-methylheptyl]oxy]phenol], for which the 50% inhibitory concentration (IC50) amounted to 39.4 µM.
With `CCCc1c(OCCCOc2cc(O)c(-c3ccccc3)cc2CC)cccc1OC(C)C(=O)O` (centres unmarked) [Example 5, 2-[3-[3-[(5-Ethyl-2-hydroxy[1, 1'-biphenyl]-4-yl)oxy]propoxy]-2-propylphenoxy]propanoic acid], the IC50 worked out at 12 µM.
For `CCCc1c(OCCCOc2cc(O)c(-c3ccc(F)cc3)cc2CC)ccc2c1OC(C(=O)O)CC2` (centres unmarked) [Example 6, 8-Propyl-7-[3-[4-(4-fluorophenyl)-2-ethyl-5-hydroxyphenoxy]propoxy]-3,4-dihydro-2H-1-benzopyran-2-carboxylic acid], the IC50 is 9 µM.
Turning to `CCCc1c(OCCCOc2cc(O)c(-c3ccc(F)cc3)cc2CC)cccc1Oc1ccccc1C(=O)O` [Example 8, 2-[2-Propyl-3-[3-[2-ethyl-4-(4-fluorophenyl)-5-hydroxyphenoxy]propoxy]phenoxy]benzoic acid], the IC50 came out at 12 µM.
Consider `CCc1cc(-c2ccc(F)cc2)c(O)cc1OCCCCOc1ccccc1CCC(=O)O` [Example 9, 3-(2-(4-(2-Ethyl-4-(4-fluorophenyl)-5-hydroxyphenoxy)-5-butyloxy)phenyl)propionic acid], for which the 50% inhibitory concentration (IC50) was 35 µM.
Still for that read-out and setting: in the case of `CCc1cc(C(C)=O)c(O)cc1OCCCCCC(C)(C)c1nn[nH]n1` [Example 10, 1-[5-ethyl-2-hydroxy-4-[[6-methyl-6-(1H-tetrazol-5-yl)heptyl]oxy]phenyl]ethanone] it was 43 µM; in that of `CCc1cc(CC)c(OCCCCCC(C)(C)c2nn[nH]n2)cc1O` [Example 11, 2,4-diethyl-5-[[6-methyl-6-(1H-tetrazol-5yl)heptyl]oxy]phenol], 54 µM; in that of `CCCc1c(OCCCOc2cc(O)c(OCC)cc2CC)ccc2c1OC(C(=O)O)CC2` (centres unmarked) [Example 12, 3,4-dihydro-8-propyl-7-[3-(2-ethyl-5-hydroxy-4-ethoxy-phenoxy)propoxy]-2H-1-benzopyran-2-carboxylic acid], 28 µM.
Consider `CCCc1c(OCCCOc2cc(O)c(C(C)=O)cc2CC)ccc2c1OC(C(=O)O)CC2` (centres unmarked) [Example 13, 7-[3-(4-acetyl-2-ethyl-5-hydroxyphenoxy)propoxy]-3,4-dihydro-8-propyl-2H-1-benzopyran-2-carboxylic acid], for which the IC50 came out at 13 µM.
For the compound `CCCc1c(OCCCOc2cc(O)c(C(C)=O)cc2CC)cccc1OC(CC)C(=O)O` (centres unmarked) [Example 14, 2-[3-[3-(4-acetyl-2-ethyl-5-hydroxyphenoxy)-propoxy)-2-propylphenoxy]butanoic acid], the 50% inhibitory concentration (IC50) stood at 14 µM.

A word on the IC50: it is the midpoint of a concentration-inhibition curve.
